Test results: patent US20200032271A1, “COMBINATION THERAPY WITH LIPOSOMAL ANTISENSE OLIGONUCLEOTIDES” (Bio-Path Holdings, Inc., priority 2016, published 2020)
[PEt] = P-ethoxy (ethyl phosphotriester) internucleoside linkage

Assay: Adverse events in study 2003-0578 (NCI CTCAE grading)
Settings: all treatment groups
Source text: Each participant who receives study drug will be closely monitored for AEs. An AE is any untoward medical occurrence associated with the use of a drug in humans, whether or not considered drug related. Adverse events include any signs, symptoms, illnesses, or diagnoses that appear or worsen during the course of the study. An AE may be an intercurrent illness, an injury, or any concomitant impairment of the participant's health. All AEs occurring at any time from the time of consent through the end of treatment visit will be reported regardless of the etiology of the event. The NCI's CTCAE v4.03 will be used for grading AEs.
The causal relationship to BP1001 IP or Das for all AEs will be assessed as follows: (1) definitely related—AEs clearly attributable to study regimen administration; (2) probably related—AEs for which there is a reasonable possibility of causal association to study regimen; (3) possibly related—AEs for which there is confounding by comorbidities, medications or other considerations but for which it is not unreasonable that the AE may have been caused by study regimen; or (4) not related—AEs that are considered clearly not causally related to study regimen, or for which there is a clear alternative explanation

BP1001: liposome-incorporated P-ethoxy antisense oligodeoxynucleotide (5′-ATATTTGGCGATGGCTTC-3′, SEQ ID NO: 1) specific to grb2 mRNA, in neutral DOPC liposomes (DNA, all [PEt], methylation of C not given here; incorporated in neutral DOPC liposomes)
2: Hepatic failure ≥Grade 3, number of patients (AML at enrollment (n = 30)) | Hepatobiliary disorders ≥Grade 3, number of patients (AML at enrollment (n = 30)) | Investigations ≥Grade 3, number of patients (AML at enrollment (n = 30)) | Multi-organ failure ≥Grade 3, number of patients (AML at enrollment (n = 30)) | Neoplasms benign, malignant, and unspecified (incl. cysts and polyps) ≥Grade 3, number of patients (AML at enrollment (n = 30)) | Platelet count decreased ≥Grade 3, number of patients (AML at enrollment (n = 30)) | Respiratory distress ≥Grade 3, number of patients (AML at enrollment (n = 30)) | Blood and lymphatic system disorders ≥Grade 3, number of patients (CML at enrollment (n = 5)) | General disorders and administration site conditions ≥Grade 3, number of patients (CML at enrollment (n = 5)) | Leukocytosis ≥Grade 3, number of patients (CML at enrollment (n = 5)) | Tumor lysis syndrome ≥Grade 3, number of patients (CML at enrollment (n = 5)) | AML progression, number of patients (MDS at enrollment (n = 4))
1: Abdominal Pain ≥Grade 3, number of patients (AML at enrollment (n = 30)) | Asthenia ≥Grade 3, number of patients (AML at enrollment (n = 30)) | Back Pain ≥Grade 3, number of patients (AML at enrollment (n = 30)) | Cardiac disorders ≥Grade 3, number of patients (AML at enrollment (n = 30)) | Cataract ≥Grade 3, number of patients (AML at enrollment (n = 30)) | Extremity Lower Edema ≥Grade 3, number of patients (AML at enrollment (n = 30)) | Eye disorders ≥Grade 3, number of patients (AML at enrollment (n = 30)) | Gastrointestinal disorders ≥Grade 3, number of patients (AML at enrollment (n = 30)) | Hallucinations ≥Grade 3, number of patients (AML at enrollment (n = 30)) | Heart failure ≥Grade 3, number of patients (AML at enrollment (n = 30)) | Hypocalcemia ≥Grade 3, number of patients (AML at enrollment (n = 30)) | Hypoglycemia ≥Grade 3, number of patients (AML at enrollment (n = 30)) | Hyponatremia ≥Grade 3, number of patients (AML at enrollment (n = 30)) | Hypovolemia ≥Grade 3, number of patients (AML at enrollment (n = 30)) | Musculoskeletal and connective tissue disorders ≥Grade 3, number of patients (AML at enrollment (n = 30)) | Penile Pain ≥Grade 3, number of patients (AML at enrollment (n = 30)) | Pleural Effusions ≥Grade 3, number of patients (AML at enrollment (n = 30)) | Psychiatric disorders ≥Grade 3, number of patients (AML at enrollment (n = 30)) | Reproductive system and breast disorders ≥Grade 3, number of patients (AML at enrollment (n = 30)) | Tumor lysis syndrome ≥Grade 3, number of patients (AML at enrollment (n = 30)) | Acute kidney injury ≥Grade 3, number of patients (CML at enrollment (n = 5)) | Asthenia ≥Grade 3, number of patients (CML at enrollment (n = 5)) | Cardiac disorders ≥Grade 3, number of patients (CML at enrollment (n = 5)) | Heart failure ≥Grade 3, number of patients (CML at enrollment (n = 5)) | Hypocalcemia ≥Grade 3, number of patients (CML at enrollment (n = 5)) | Hypoglycemia ≥Grade 3, number of patients (CML at enrollment (n = 5)) | Hypokalemia ≥Grade 3, number of patients (CML at enrollment (n = 5)) | Hyponatremia ≥Grade 3, number of patients (CML at enrollment (n = 5)) | Multi-organ failure ≥Grade 3, number of patients (CML at enrollment (n = 5)) | Renal and urinary disorders ≥Grade 3, number of patients (CML at enrollment (n = 5)) | Respiratory distress ≥Grade 3, number of patients (CML at enrollment (n = 5)) | Respiratory, thoracic, and mediastinal disorders ≥Grade 3, number of patients (CML at enrollment (n = 5)) | Cardiac disorders ≥Grade 3, number of patients (MDS at enrollment (n = 4)) | Heart failure ≥Grade 3, number of patients (MDS at enrollment (n = 4))
23: Patients with AEs ≥Grade 3, number of patients (AML at enrollment (n = 30))
4: General disorders and administration site conditions ≥Grade 3, number of patients (AML at enrollment (n = 30)) | Hypoxia ≥Grade 3, number of patients (AML at enrollment (n = 30)) | Pneumonia ≥Grade 3, number of patients (AML at enrollment (n = 30)) | Metabolism and nutritional disorders ≥Grade 3, number of patients (CML at enrollment (n = 5)) | Patients with AEs ≥Grade 3, number of patients (CML at enrollment (n = 5))
8: Metabolism and nutritional disorders ≥Grade 3, number of patients (AML at enrollment (n = 30))
5: AML progression, number of patients (CML at enrollment (n = 5))
0: Abdominal Pain ≥Grade 3, number of patients (CML at enrollment (n = 5)) | Acidosis ≥Grade 3, number of patients (CML at enrollment (n = 5)) | Back Pain ≥Grade 3, number of patients (CML at enrollment (n = 5)) | Cataract ≥Grade 3, number of patients (CML at enrollment (n = 5)) | Dyspnea ≥Grade 3, number of patients (CML at enrollment (n = 5)) | Extremity Lower Edema ≥Grade 3, number of patients (CML at enrollment (n = 5)) | Eye disorders ≥Grade 3, number of patients (CML at enrollment (n = 5)) | Febrile neutropenia ≥Grade 3, number of patients (CML at enrollment (n = 5)) | Gastrointestinal disorders ≥Grade 3, number of patients (CML at enrollment (n = 5)) | Hallucinations ≥Grade 3, number of patients (CML at enrollment (n = 5)) | Hepatic failure ≥Grade 3, number of patients (CML at enrollment (n = 5)) | Hepatobiliary disorders ≥Grade 3, number of patients (CML at enrollment (n = 5)) | Hypotension ≥Grade 3, number of patients (CML at enrollment (n = 5)) | Hypovolemia ≥Grade 3, number of patients (CML at enrollment (n = 5)) | Hypoxia ≥Grade 3, number of patients (CML at enrollment (n = 5)) | Investigations ≥Grade 3, number of patients (CML at enrollment (n = 5)) | Musculoskeletal and connective tissue disorders ≥Grade 3, number of patients (CML at enrollment (n = 5)) | Neoplasms benign, malignant, and unspecified (incl. cysts and polyps) ≥Grade 3, number of patients (CML at enrollment (n = 5)) | Penile Pain ≥Grade 3, number of patients (CML at enrollment (n = 5)) | Platelet count decreased ≥Grade 3, number of patients (CML at enrollment (n = 5)) | Pleural Effusions ≥Grade 3, number of patients (CML at enrollment (n = 5)) | Pneumonia ≥Grade 3, number of patients (CML at enrollment (n = 5)) | Psychiatric disorders ≥Grade 3, number of patients (CML at enrollment (n = 5)) | Reproductive system and breast disorders ≥Grade 3, number of patients (CML at enrollment (n = 5)) | Respiratory failure ≥Grade 3, number of patients (CML at enrollment (n = 5)) | Vascular disorders ≥Grade 3, number of patients (CML at enrollment (n = 5)) | Abdominal Pain ≥Grade 3, number of patients (MDS at enrollment (n = 4)) | Acidosis ≥Grade 3, number of patients (MDS at enrollment (n = 4)) | Acute kidney injury ≥Grade 3, number of patients (MDS at enrollment (n = 4)) | Asthenia ≥Grade 3, number of patients (MDS at enrollment (n = 4)) | Back Pain ≥Grade 3, number of patients (MDS at enrollment (n = 4)) | Blood and lymphatic system disorders ≥Grade 3, number of patients (MDS at enrollment (n = 4)) | Cataract ≥Grade 3, number of patients (MDS at enrollment (n = 4)) | Dyspnea ≥Grade 3, number of patients (MDS at enrollment (n = 4)) | Extremity Lower Edema ≥Grade 3, number of patients (MDS at enrollment (n = 4)) | Eye disorders ≥Grade 3, number of patients (MDS at enrollment (n = 4)) | Febrile neutropenia ≥Grade 3, number of patients (MDS at enrollment (n = 4)) | Gastrointestinal disorders ≥Grade 3, number of patients (MDS at enrollment (n = 4)) | General disorders and administration site conditions ≥Grade 3, number of patients (MDS at enrollment (n = 4)) | Hallucinations ≥Grade 3, number of patients (MDS at enrollment (n = 4)) | Hepatic failure ≥Grade 3, number of patients (MDS at enrollment (n = 4)) | Hepatobiliary disorders ≥Grade 3, number of patients (MDS at enrollment (n = 4)) | Hypocalcemia ≥Grade 3, number of patients (MDS at enrollment (n = 4)) | Hypoglycemia ≥Grade 3, number of patients (MDS at enrollment (n = 4)) | Hypokalemia ≥Grade 3, number of patients (MDS at enrollment (n = 4))
6: Leukocytosis ≥Grade 3, number of patients (AML at enrollment (n = 30))
19: AML progression, number of patients (AML at enrollment (n = 30))
3: Acidosis ≥Grade 3, number of patients (AML at enrollment (n = 30)) | Acute kidney injury ≥Grade 3, number of patients (AML at enrollment (n = 30)) | Dyspnea ≥Grade 3, number of patients (AML at enrollment (n = 30)) | Febrile neutropenia ≥Grade 3, number of patients (AML at enrollment (n = 30)) | Hypokalemia ≥Grade 3, number of patients (AML at enrollment (n = 30)) | Hypotension ≥Grade 3, number of patients (AML at enrollment (n = 30)) | Renal and urinary disorders ≥Grade 3, number of patients (AML at enrollment (n = 30)) | Respiratory failure ≥Grade 3, number of patients (AML at enrollment (n = 30)) | Vascular disorders ≥Grade 3, number of patients (AML at enrollment (n = 30))
10: Blood and lymphatic system disorders ≥Grade 3, number of patients (AML at enrollment (n = 30)) | Respiratory, thoracic, and mediastinal disorders ≥Grade 3, number of patients (AML at enrollment (n = 30))
